Experimental findings from patent US10633419B2, “Immunomodulators” (BRISTOL-MYERS SQUIBB COMPANY, priority 2014, dated 2020) are described below.

Starred links: 1 amine or outer side, 2 acyl side, 3 side chain; linkers in the order of their positions; H or OH if unused. Positions of bridges follow the written chain, without caps; N, C: chain ends. Non-standard residues stand in square brackets, D forms with d. Residues, ends and D or L forms follow the SMILES beside them. Groups on a side chain read outwards from the residue. *: point of attachment. Trp(1-CH2COOH) = N[C@@H](Cc1cn(CC(=O)O)c2ccccc12)C(=O)O; γGlu = O=C(O)[C@H](CCC(=O)[*:2])N[*:1]; Gly(octyl) = CCCCCCCC[C@H](N)C(=O)O; Hyp = O=C(O)[C@@H]1C[C@@H](O)CN1; NHhexadecyl = CCCCCCCCCCCCCCCCN*; Myristoyl = CCCCCCCCCCCCCC(=O)*; NHtetradecyl = CCCCCCCCCCCCCCN*; NMeNle = CCCC[C@H](NC)C(=O)O; Tle = CC(C)(C)[C@H](N)C(=O)O; NMeA = CN[C@@H](C)C(=O)O; Aun = NCCCCCCCCCCC(=O)O; Dab = NCC[C@H](N)C(=O)O; Dap = NC[C@H](N)C(=O)O

In one experiment the target is T1, PD-L1 (Homo sapiens, UniProt Q9NZQ7).
T1 construct: hPDL1(19-239)-TVMV-His; made in house; host or cells: HEK293T
T1 sequence (Q9NZQ7 with tags, fused parts or gaps): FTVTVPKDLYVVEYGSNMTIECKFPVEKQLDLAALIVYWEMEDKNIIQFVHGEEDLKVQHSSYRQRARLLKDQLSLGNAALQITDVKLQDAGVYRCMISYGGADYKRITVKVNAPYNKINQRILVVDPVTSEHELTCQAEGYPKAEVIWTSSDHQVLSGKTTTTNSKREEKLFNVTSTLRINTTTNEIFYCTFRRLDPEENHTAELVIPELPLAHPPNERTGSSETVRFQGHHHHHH
Briefly: PD-1/PD-L1 Homogenous Time-Resolved Fluorescence (HTRF) binding assay (PD-1-Ig/PD-L1-His). The following applies: inhibition of PD-1-Ig binding to PD-L1-TVMV-His; value given as number; read-out: HTRF IC50. The essentials:
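Inhibitors pre-incubated 15 min with PD-L1-His (10 nM final), then PD-1-Ig (20 nM final) added for 15 min in dPBS/0.1% BSA/0.05% Tween-20. Eu-cryptate anti-Ig (1 nM) and APC anti-His (20 nM) added, 30 min equilibration, 665/620 nm HTRF ratio read.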
With `CCCCCCCC[C@H](NC(=O)CCCCCCCCCCNC(=O)[C@@H]1CSCC(=O)N[C@@H](Cc2ccc(O)cc2)C(=O)N(C)[C@@H](C)C(=O)N[C@@H](CC(N)=O)C(=O)N2CCC[C@H]2C(=O)N[C@@H](CN)C(=O)N[C@@H](CC(C)C)C(=O)N2C[C@H](O)C[C@H]2C(=O)N[C@@H](Cc2c[nH]c3ccccc23)C(=O)N[C@@H](CCN)C(=O)N[C@@H](Cc2cn(CC(=O)O)c3ccccc23)C(=O)N(C)[C@@H](CCCC)C(=O)N(C)[C@@H](CCCC)C(=O)N[C@@H](CC(C)C)C(=O)N1)C(=O)O` [Example 11102] ({CH2CO}-Y[NMeA]NP[Dap]L[Hyp]W[Dab][Trp(1-CH2COOH)][NMeNle][NMeNle]LC[Aun][Gly(octyl)]-OH; thioether N-14), the IC50 (as a rule, the concentration that inhibits the measured activity by half) was 13 nM.

Staying with this experiment, now noted: inhibition of PD-1-Ig binding to PD-L1-TVMV-His; value given as range class; read-out: HTRF IC50.
Regarding `CCCCCCCC[C@H](NC(=O)CNC(=O)CNC(=O)CNC(=O)[C@@H]1CSCC(=O)N[C@@H](Cc2ccc(O)cc2)C(=O)N(C)[C@@H](C)C(=O)N[C@@H](CC(N)=O)C(=O)N2CCC[C@H]2C(=O)N[C@@H](CN)C(=O)N[C@@H](CC(C)C)C(=O)N2C[C@H](O)C[C@H]2C(=O)N[C@@H](Cc2c[nH]c3ccccc23)C(=O)N[C@@H](CCN)C(=O)N[C@@H](Cc2cn(CC(=O)O)c3ccccc23)C(=O)N(C)[C@@H](CCCC)C(=O)N(C)[C@@H](CCCC)C(=O)N[C@@H](CC(C)C)C(=O)N1)C(=O)O` [Example 11103] ({CH2CO}-Y[NMeA]NP[Dap]L[Hyp]W[Dab][Trp(1-CH2COOH)][NMeNle][NMeNle]LCGGG[Gly(octyl)]-OH; thioether N-14), the 50% inhibitory concentration (IC50) was in the range of 10 to 99 nM. On the same count and under the same terms, next, `CCCCCCCCCCCCCCCCNC(=O)CNC(=O)CNC(=O)[C@@H]1CSCC(=O)N[C@@H](Cc2ccc(O)cc2)C(=O)N(C)[C@@H](C)C(=O)N[C@@H](CC(N)=O)C(=O)N2CCC[C@H]2C(=O)N[C@@H](CCN)C(=O)N[C@@H](CC(C)C)C(=O)N2C[C@H](O)C[C@H]2C(=O)N[C@@H](Cc2c[nH]c3ccccc23)C(=O)N[C@@H](CO)C(=O)N[C@@H](Cc2c[nH]c3ccccc23)C(=O)N(C)[C@@H](CCCC)C(=O)N(C)[C@@H](CCCC)C(=O)N[C@@H](CCCNC(=N)N)C(=O)N1` [Example 11104] ({CH2CO}-Y[NMeA]NP[Dab]L[Hyp]WSW[NMeNle][NMeNle]RCGG-NHhexadecyl; thioether N-14): 100 to 1600 nM; `CCCCCCCCCCCCCCNC(=O)CNC(=O)CNC(=O)[C@@H]1CSCC(=O)N[C@@H](Cc2ccc(O)cc2)C(=O)N(C)[C@@H](C)C(=O)N[C@@H](CC(N)=O)C(=O)N2CCC[C@H]2C(=O)N[C@@H](CCN)C(=O)N[C@@H](CC(C)C)C(=O)N2C[C@H](O)C[C@H]2C(=O)N[C@@H](Cc2c[nH]c3ccccc23)C(=O)N[C@@H](C(C)(C)C)C(=O)N[C@@H](Cc2c[nH]c3ccccc23)C(=O)N(C)[C@@H](CCCC)C(=O)N(C)[C@@H](CCCC)C(=O)N[C@@H](CCCNC(=N)N)C(=O)N1` [Example 11107] ({CH2CO}-Y[NMeA]NP[Dab]L[Hyp]W[Tle]W[NMeNle][NMeNle]RCGG-NHtetradecyl; thioether N-14): 100 to 1600 nM. Turning to `CCCCCCCCCCCCCCCCNC(=O)CNC(=O)CNC(=O)CNC(=O)CNC(=O)[C@@H]1CSCC(=O)N[C@@H](Cc2ccc(O)cc2)C(=O)N(C)[C@@H](C)C(=O)N[C@@H](CC(N)=O)C(=O)N2CCC[C@H]2C(=O)N[C@@H](CN)C(=O)N[C@@H](CC(C)C)C(=O)N2C[C@H](O)C[C@H]2C(=O)N[C@@H](Cc2c[nH]c3ccccc23)C(=O)N[C@@H](CO)C(=O)N[C@@H](Cc2c[nH]c3ccccc23)C(=O)N(C)[C@@H](CCCC)C(=O)N(C)[C@@H](CCCC)C(=O)N[C@@H](CCCNC(=N)N)C(=O)N1` [Example 11108] ({CH2CO}-Y[NMeA]NP[Dap]L[Hyp]WSW[NMeNle][NMeNle]RCGGGG-NHhexadecyl; thioether N-14), the IC50 lay in the range of 100 to 1600 nM.

As for `CCCCCCCCCCCCCCCCNC(=O)CNC(=O)CNC(=O)[C@@H]1CSCC(=O)N[C@@H](Cc2ccc(O)cc2)C(=O)N(C)[C@@H](C)C(=O)N[C@@H](CC(N)=O)C(=O)N2CCC[C@H]2C(=O)N[C@@H](CCC(=O)O)C(=O)N[C@@H](CC(C)C)C(=O)N2C[C@H](O)C[C@H]2C(=O)N[C@@H](Cc2c[nH]c3ccccc23)C(=O)N[C@@H](CO)C(=O)N[C@@H](Cc2c[nH]c3ccccc23)C(=O)N(C)[C@@H](CCCC)C(=O)N(C)[C@@H](CCCC)C(=O)N[C@@H](CCCNC(=N)N)C(=O)N1` [Example 11109] ({CH2CO}-Y[NMeA]NPEL[Hyp]WSW[NMeNle][NMeNle]RCGG-NHhexadecyl; thioether N-14), the IC50 was in the range of 100 to 1600 nM. The same measure, in the same setting: to `CCCCCCCCCCCCCCCCNC(=O)CCCCCCCCCCNC(=O)CNC(=O)[C@@H]1CSCC(=O)N[C@@H](Cc2ccc(O)cc2)C(=O)N(C)[C@@H](C)C(=O)N[C@@H](CC(N)=O)C(=O)N2CCC[C@H]2C(=O)N[C@@H](Cc2cnc[nH]2)C(=O)N[C@@H](CC(C)C)C(=O)N2C[C@H](O)C[C@H]2C(=O)N[C@@H](Cc2c[nH]c3ccccc23)C(=O)N[C@@H](CO)C(=O)N[C@@H](Cc2c[nH]c3ccccc23)C(=O)N(C)[C@@H](CCCC)C(=O)N(C)[C@@H](CCCC)C(=O)N[C@@H](CCCNC(=N)N)C(=O)N1` [Example 11112] ({CH2CO}-Y[NMeA]NPHL[Hyp]WSW[NMeNle][NMeNle]RCG[Aun]-NHhexadecyl; thioether N-14) belongs 100 to 1600 nM; to `CCCCCCCCCCCCCC(=O)N[C@@H](CCC(=O)NCCCC[C@H](NC(=O)CNC(=O)CNC(=O)CNC(=O)CNC(=O)[C@@H]1CSCC(=O)N[C@@H](Cc2ccc(O)cc2)C(=O)N(C)[C@@H](C)C(=O)N[C@@H](CC(N)=O)C(=O)N2CCC[C@H]2C(=O)N[C@@H](Cc2cnc[nH]2)C(=O)N[C@@H](CC(C)C)C(=O)N2C[C@H](O)C[C@H]2C(=O)N[C@@H](Cc2c[nH]c3ccccc23)C(=O)N[C@@H](CO)C(=O)N[C@@H](Cc2c[nH]c3ccccc23)C(=O)N(C)[C@@H](CCCC)C(=O)N(C)[C@@H](CCCC)C(=O)N[C@@H](CCCNC(=N)N)C(=O)N1)C(N)=O)C(=O)O` [Example 11114] ({CH2CO}-Y[NMeA]NPHL[Hyp]WSW[NMeNle][NMeNle]RCGGGGK([γGlu-Myristoyl])-NH2; thioether N-14), 100 to 1600 nM; to `CCCCCCCCCCCCCCCCNC(=O)CCCCCCCCCCNC(=O)[C@@H]1CSCC(=O)N[C@@H](Cc2ccc(O)cc2)C(=O)N(C)[C@@H](C)C(=O)N[C@@H](CC(N)=O)C(=O)N2CCC[C@H]2C(=O)N[C@@H](Cc2cnc[nH]2)C(=O)N[C@@H](CC(C)C)C(=O)N2C[C@H](O)C[C@H]2C(=O)N[C@@H](Cc2c[nH]c3ccccc23)C(=O)N[C@@H](CO)C(=O)N[C@@H](Cc2c[nH]c3ccccc23)C(=O)N(C)[C@@H](CCCC)C(=O)N(C)[C@@H](CCCC)C(=O)N[C@@H](CCCNC(=N)N)C(=O)N1` [Example 11115], 100 to 1600 nM.

Turning to `CCCCCCCCCCCCCC(=O)N[C@@H](CCC(=O)NCCCC[C@H](NC(=O)CNC(=O)CNC(=O)CNC(=O)[C@@H]1CSCC(=O)N[C@@H](Cc2ccc(O)cc2)C(=O)N(C)[C@@H](C)C(=O)N[C@@H](CC(N)=O)C(=O)N2CCC[C@H]2C(=O)N[C@@H](Cc2cnc[nH]2)C(=O)N[C@@H](CC(C)C)C(=O)N2C[C@H](O)C[C@H]2C(=O)N[C@@H](Cc2c[nH]c3ccccc23)C(=O)N[C@@H](CO)C(=O)N[C@@H](Cc2c[nH]c3ccccc23)C(=O)N(C)[C@@H](CCCC)C(=O)N(C)[C@@H](CCCC)C(=O)N[C@@H](CCCNC(=N)N)C(=O)N1)C(N)=O)C(=O)O` [Example 11116] ({CH2CO}-Y[NMeA]NPHL[Hyp]WSW[NMeNle][NMeNle]RCGGGK([γGlu-Myristoyl])-NH2; thioether N-14), the IC50 lay in the range of 10 to 99 nM.
